Measurements reported in US11117900B2 (Vertex Pharmaceuticals Incorporated, priority 2012, dated 2021).

Test system: HCT116 colorectal cancer cells
Test: Cisplatin sensitization assay (96 h MTS cell viability);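 also: compound concentration needed to lower the IC50 of Cisplatin alone by a set fold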
Type: cell-based
Conditions: Cisplatin sensitization value
Procedure, shortened: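 The MTS viability read, after 1 h with reagent, followed 96 h of co-treatment at 37° C. in 5% CO2. Both compound and cisplatin were titrated 2-fold from a 10 μM top final concentration in a complete concentration matrix on HCT116 cells. Scores +++/++/+ reflect cisplatin sensitization value ranges.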

Structure (SMILES): CC1CN(C)CCN1c1ccncc1NC(=O)c1c(N)nn2cc(Cl)cnc12 (stereo not drawn) [I-N-72, 2-amino-6-chloro-N-(4-(2,4-dimethylpiperazin-1-yl)pyridin-3-yl)pyrazolo[1,5-a]pyrimidine-3-carboxamide]
- Cisplatin Sensitization Assay: +++ (Compounds with a Cisplatin sensitization value of <0.02 μM are marked with “+++.”)

Structure (SMILES): COC1CCN(c2ccncc2NC(=O)c2c(N)nn3cc(Cl)cnc23)CC1 [I-N-73, 2-amino-6-chloro-N-(4-(4-methoxypiperidin-1-yl)pyridin-3-yl)pyrazolo[1,5-a]pyrimidine-3-carboxamide]
- Cisplatin Sensitization Assay: +++ (Compounds with a Cisplatin sensitization value of <0.02 μM are marked with “+++.”)

Structure (SMILES): COC(=O)C1CCN(c2ccncc2NC(=O)c2c(N)nn3cc(Cl)cnc23)CC1 [I-N-74, methyl-1-(3-(2-amino-6-chloropyrazolo[1,5-a]pyrimidine-3-carboxamido)pyridin-4-yl)piperidine-4-carboxylate]
- Cisplatin Sensitization Assay: +++ (Compounds with a Cisplatin sensitization value of <0.02 μM are marked with “+++.”)

Structure (SMILES): Nc1nn2cc(Cl)cnc2c1C(=O)Nc1cnccc1N1CCn2cncc2C1 [I-N-75, 2-amino-6-chloro-N-(4-(5,6-dihydroimidazo[1,5-a]pyrazin-7(8H)-yl)pyridin-3-yl)pyrazolo[1,5-a]pyrimidine-3-carboxamide]
- Cisplatin Sensitization Assay: +++ (Compounds with a Cisplatin sensitization value of <0.02 μM are marked with “+++.”)

Structure (SMILES): CN1CCN(c2ccncc2NC(=O)c2c(N)nn3cc(C(C)(C)C#N)cnc23)CC1 [I-N-76, 2-amino-6-(2-cyanopropan-2-yl)-N-(4-(4-methylpiperazin-1-yl)pyridin-3-yl)pyrazolo[1,5-a]pyrimidine-3-carboxamide]
- Cisplatin Sensitization Assay: +++ (Compounds with a Cisplatin sensitization value of <0.02 μM are marked with “+++.”)

Structure (SMILES): N#CCc1cnc2c(C(=O)Nc3cnccc3N3CCCC3)c(N)nn2c1 [I-N-77, 2-amino-6-(cyanomethyl)-N-(4-(pyrrolidin-1-yl)pyridin-3-yl)pyrazolo[1,5-a]pyrimidine-3-carboxamide]
- Cisplatin Sensitization Assay: + (Compounds with a Cisplatin sensitization value >0.2 μM but <5 μM are marked with “+.”)

Structure (SMILES): N#CCc1cnc2c(C(=O)Nc3cnccc3N3CCCCCC3)c(N)nn2c1 [I-N-79, 2-amino-N-(4-(azepan-1-yl)pyridin-3-yl)-6-(cyanomethyl)pyrazolo[1,5-a]pyrimidine-3-carboxamide]
- Cisplatin Sensitization Assay: ++ (Compounds with a Cisplatin sensitization value >0.02 μM but <0.2 μM are marked with “++.”)

Structure (SMILES): CN1CCN(c2c(F)cncc2NC(=O)c2c(N)nn3cc(CC#N)cnc23)CC1 [I-N-80, 2-amino-6-(cyanomethyl)-N-(5-fluoro-4-(4-methylpiperazin-1-yl)pyridin-3-yl)pyrazolo[1,5-a]pyrimidine-3-carboxamide]
- Cisplatin Sensitization Assay: ++ (Compounds with a Cisplatin sensitization value >0.02 μM but <0.2 μM are marked with “++.”)

Structure (SMILES): N#CCc1cnc2c(C(=O)Nc3cnccc3N3CCOCC3)c(N)nn2c1 [I-N-81, 2-amino-6-(cyanomethyl)-N-(4-morpholinopyridin-3-yl)pyrazolo[1,5-a]pyrimidine-3-carboxamide]
- Cisplatin Sensitization Assay: +++ (Compounds with a Cisplatin sensitization value of <0.02 μM are marked with “+++.”)

Structure (SMILES): CN1CCN(c2ccncc2NC(=O)c2c(N)nn3cc(CC#N)cnc23)CC1 [I-N-82, 2-amino-6-(cyanomethyl)-N-(4-(4-methylpiperazin-1-yl)pyridin-3-yl)pyrazolo[1,5-a]pyrimidine-3-carboxamide]
- Cisplatin Sensitization Assay: ++ (Compounds with a Cisplatin sensitization value >0.02 μM but <0.2 μM are marked with “++.”)

Structure (SMILES): N#CCc1cnc2c(C(=O)Nc3cnccc3N3CCC(O)CC3)c(N)nn2c1 [I-N-83, 2-amino-6-(cyanomethyl)-N-(4-(4-hydroxypiperidin-1-yl)pyridin-3-yl)pyrazolo[1,5-a]pyrimidine-3-carboxamide]
- Cisplatin Sensitization Assay: ++ (Compounds with a Cisplatin sensitization value >0.02 μM but <0.2 μM are marked with “++.”)

Structure (SMILES): N#CCc1cnc2c(C(=O)Nc3cnccc3N3CCCCC3)c(N)nn2c1 [I-N-84, 2-amino-6-(cyanomethyl)-N-(4-(piperidin-1-yl)pyridin-3-yl)pyrazolo[1,5-a]pyrimidine-3-carboxamide]
- Cisplatin Sensitization Assay: +++ (Compounds with a Cisplatin sensitization value of <0.02 μM are marked with “+++.”)

Structure (SMILES): CN1CCN(c2c(Cl)cncc2NC(=O)c2c(N)nn3cc(F)cnc23)CC1 [I-N-85, 2-amino-N-(5-chloro-4-(4-methylpiperazin-1-yl)pyridin-3-yl)-6-fluoropyrazolo[1,5-a]pyrimidine-3-carboxamide]
- Cisplatin Sensitization Assay: ++ (Compounds with a Cisplatin sensitization value >0.02 μM but <0.2 μM are marked with “++.”)

Structure (SMILES): Nc1nn2cc(Cl)cnc2c1C(=O)Nc1cnccc1N1CCC(N)CC1 [I-N-86, 2-amino-N-(4-(4-aminopiperidin-1-yl)pyridin-3-yl)-6-chloropyrazolo[1,5-a]pyrimidine-3-carboxamide]
- Cisplatin Sensitization Assay: +++ (Compounds with a Cisplatin sensitization value of <0.02 μM are marked with “+++.”)

Structure (SMILES): CNC1CCN(c2ccncc2NC(=O)c2c(N)nn3cc(Cl)cnc23)CC1 [I-N-87, 2-amino-6-chloro-N-(4-(4-(methylamino)piperidin-1-yl)pyridin-3-yl)pyrazolo[1,5-a]pyrimidine-3-carboxamide]
- Cisplatin Sensitization Assay: ++ (Compounds with a Cisplatin sensitization value >0.02 μM but <0.2 μM are marked with “++.”)

Structure (SMILES): Nc1nn2cc(Cl)cnc2c1C(=O)Nc1cnccc1N1CCNCC1 [I-N-88, 2-amino-6-chloro-N-(4-(piperazin-1-yl)pyridin-3-yl)pyrazolo[1,5-a]pyrimidine-3-carboxamide]
- Cisplatin Sensitization Assay: ++ (Compounds with a Cisplatin sensitization value >0.02 μM but <0.2 μM are marked with “++.”)

Structure (SMILES): N#CCc1cnc2c(C(=O)Nc3cnccc3N3CCNCC3)c(N)nn2c1 [I-N-89, 2-amino-6-(cyanomethyl)-N-(4-(piperazin-1-yl)pyridin-3-yl)pyrazolo[1,5-a]pyrimidine-3-carboxamide]
- Cisplatin Sensitization Assay: ++ (Compounds with a Cisplatin sensitization value >0.02 μM but <0.2 μM are marked with “++.”)

Structure (SMILES): N#CCc1cnc2c(C(=O)Nc3cnccc3N3CCOC(CN)C3)c(N)nn2c1 (stereo not drawn) [I-N-90, 2-amino-N-(4-(2-(aminomethyl)morpholino)pyridin-3-yl)-6-(cyanomethyl)pyrazolo[1,5-a]pyrimidine-3-carboxamide]
- Cisplatin Sensitization Assay: + (Compounds with a Cisplatin sensitization value >0.2 μM but <5 μM are marked with “+.”)

Structure (SMILES): NCC1CCN(c2ccncc2NC(=O)c2c(N)nn3cc(Cl)cnc23)CC1 [I-N-91, 2-amino-N-(4-(4-(aminomethyl)piperidin-1-yl)pyridin-3-yl)-6-chloropyrazolo[1,5-a]pyrimidine-3-carboxamide]
- Cisplatin Sensitization Assay: ++ (Compounds with a Cisplatin sensitization value >0.02 μM but <0.2 μM are marked with “++.”)

Structure (SMILES): Nc1nn2cc(F)cnc2c1C(=O)Nc1cncc(F)c1N1CCC(C(=O)O)CC1 [I-N-92, 1-(3-(2-amino-6-fluoropyrazolo[1,5-a]pyrimidine-3-carboxamido)-5-fluoropyridin-4-yl)piperidine-4-carboxylic acid]
- Cisplatin Sensitization Assay: + (Compounds with a Cisplatin sensitization value >0.2 μM but <5 μM are marked with “+.”)

Structure (SMILES): CN(C)C1CN(C2CCN(c3ccncc3NC(=O)c3c(N)nn4cc(Cl)cnc34)CC2)C1 [I-N-94, 2-amino-6-chloro-N-(4-(4-(3-(dimethylamino)azetidin-1-yl)piperidin-1-yl)pyridin-3-yl)pyrazolo[1,5-a]pyrimidine-3-carboxamide]
- Cisplatin Sensitization Assay: +++ (Compounds with a Cisplatin sensitization value of <0.02 μM are marked with “+++.”)
